Measured values published in US20110015080A1, “Solution-based methods for RNA expression profiling” (MASSACHUSETTS INSTITUTE OF TECHNOLOGY, priority 2005, published 2011).
“And” between values parts separate entries of the source, which are not always exact repeats. Equal values may be shown once. “Also recorded” adds a separate entry of the source.

How the values were obtained:
[1] = test system: HL-60 acute myeloblastic leukemia cells; conditions: treatment during a course of 5 days (Stegmaier et al., 2004); cited from earlier work
[2] = test system: HL60 (human promyelocytic leukemia) cells; assay: LMA-FlexMAP analysis of microtiter well cultures of HL60 cells treated with tretinoin or DMSO, KNN classification
[3] = HL60 cells treated with tretinoin, Experiment 3, replicate samples
[4] = HL60 microtiter plate wells tretinoin40-47 (replicates)

## CC1=C(/C=C/C(C)=C/C=C/C(C)=C/C(=O)O)C(C)(C)CCC1 [tretinoin, all-trans-retinoic acid]
[1]
  differentiation of HL-60 cells: potent inducer of neutrophilic differentiation; also recorded: differentiate with increasing neutrophil characteristics
[2]; [3]
  FlexMap signal, ACTB (LUA#91): 2538 and 2604.5 and 452 and 812 and 1191 and 2112.5 and 2760 and 2845 and 2391 and 144.5
  FlexMap signal, GAPDH_3 (LUA#95): 2330.5 and 2534 and 579 and 1017 and 1438 and 2495.5 and 2680 and 2718 and 2148 and 172
  FlexMap signal, GAPDH_5 (LUA#93): 1699 and 1739.5 and 261.5 and 439.5 and 741 and 1388 and 1787 and 1865 and 1714 and 97
  FlexMap signal, GAPDH_M (LUA#94): 1342.5 and 1462 and 221.5 and 396 and 590.5 and 1179.5 and 1602 and 1586 and 1267.5 and 79
  FlexMap signal, NM_000147 (LUA#29): 987 and 1072 and 95 and 188.5 and 323 and 713 and 1109 and 1156 and 905 and 43
  FlexMap signal, NM_000211 (LUA#39): 1072 and 1160 and 204.5 and 356 and 501 and 939 and 1215 (2×) and 924.5 and 109
  FlexMap signal, NM_000250 (LUA#87): 141 and 157 and 46 and 52 and 67 and 115 and 159 and 166 and 131 and 38
  FlexMap signal, NM_000414 (LUA#22): 384 and 448 and 48 and 74 and 114 and 272.5 and 479 and 477.5 and 378 and 35
  FlexMap signal, NM_000433 (LUA#28): 454 and 548 and 62 and 105 and 169 and 371.5 and 580.5 and 600.5 and 406 and 32
  FlexMap signal, NM_000584 (LUA#30): 1878.5 and 1840 and 240 and 426 and 663 and 1369.5 and 1886 and 1908.5 and 1555 and 96.5
  FlexMap signal, NM_000884 (LUA#81): 670 and 692 and 126 and 209 and 304 and 612 and 794.5 and 804 and 624 and 58
  FlexMap signal, NM_001034 (LUA#67): 170 and 171 and 42 and 47 and 73 and 122 and 178 and 184 and 155 and 33
  FlexMap signal, NM_001101 (LUA#34): 2622 and 2644 and 799 and 1279 and 1711 and 2759.5 and 2895 and 2880 and 2335 and 235
  FlexMap signal, NM_001469 (LUA#79): 988.5 and 1104 and 141.5 and 246.5 and 395 and 731.5 and 1124 and 1134 and 921 and 75.5
  FlexMap signal, NM_001498 (LUA#18): 397 and 391.5 and 40 and 71 and 121 and 262 and 386 and 382 and 279 and 30
  FlexMap signal, NM_001684 (LUA#23): 52.5 and 60 (2×) and 30 and 31.5 and 31 and 52 and 66 and 49 and 25
  FlexMap signal, NM_001948 (LUA#84): 63 and 62 and 34 and 38 (2×) and 50 and 61 and 59 and 54 and 33
  FlexMap signal, NM_002166 (LUA#25): 169.5 and 207 and 37 and 51 and 74 and 132 and 188.5 and 211 and 170 and 29
  FlexMap signal, NM_002467 (LUA#90): 571 and 552.5 and 136 and 162 and 239 and 409.5 and 576 and 644 and 527 and 86
  FlexMap signal, NM_002468 (LUA#40): 367 and 421 and 57.5 and 93 and 132.5 and 303 and 450 and 473.5 and 357 and 36.5
  FlexMap signal, NM_002539 (LUA#74): 276 and 278.5 and 46 and 74 and 209 and 271 and 323.5 and 225 and 36
  FlexMap signal, NM_002624 (LUA#36): 1359 and 1343 and 253.5 and 500 and 700.5 and 1234 and 1402 and 1395 and 1167.5 and 79
  FlexMap signal, NM_002664 (LUA#38): 1922 and 1934 and 383 and 702 and 1051.5 and 1832 and 2052 and 2064 and 1635.5 and 101
  FlexMap signal, NM_002970 (LUA#42): 1316 and 1443 and 164 and 329 and 528 and 1106 and 1508 and 1570.5 and 1247 and 57
  FlexMap signal, NM_002982 (LUA#45): 3449 and 3440 and 1175 and 1759 and 2328 and 3359 and 3548 and 3612.5 and 3101 and 373
  FlexMap signal, NM_003132 (LUA#68): 431 and 428 and 74 and 117.5 and 194 and 367 and 461 and 482 and 344 and 38
  FlexMap signal, NM_003172 (LUA#19): 208 and 227 and 45 and 68 and 97 and 199 and 234 and 250 and 179 and 33
  FlexMap signal, NM_003332 (LUA#43): 2312 and 2346.5 and 591 and 1003 and 1446 and 2239 and 2492 and 2467 and 2041 and 177.5
  FlexMap signal, NM_003581 (LUA#62): 40.5 and 39.5 and 40 (2×) and 36 and 42 and 47 and 46.5 and 46 and 33
  FlexMap signal, NM_003644 (LUA#17): 181.5 and 53 and 72 and 75.5 and 220 and 238.5 and 179 and 39
  FlexMap signal, NM_003752 (LUA#82): 116 and 113 and 54 (2×) and 66 and 93 and 105 and 123 and 96 and 41
  FlexMap signal, NM_003879 (LUA#24): 65 and 69 and 23 and 29 and 36 and 51 and 77 and 76 and 59 and 34
  FlexMap signal, NM_004079 (LUA#21): 113 and 124 (2×) and 34 and 41 and 53 and 88 and 122 and 121 and 30
  FlexMap signal, NM_004095 (LUA#59): 169 and 205 and 46 and 66 and 86.5 and 166.5 and 221 and 208.5 and 147 and 36
  FlexMap signal, NM_004106 (LUA#44): 1458 and 1423 and 235 and 457 and 672 and 1276 and 1500 and 1506 and 1234 and 68
  FlexMap signal, NM_004134 (LUA#76): 268 and 286 and 47.5 and 67 and 93 and 182 and 284 and 297 and 240 and 36
  FlexMap signal, NM_004152 (LUA#31): 1845 and 1993 and 319 and 601 and 837 and 1645 and 2020 and 2157.5 and 1685 and 90.5
  FlexMap signal, NM_004526 (LUA#88): 153.5 and 172 and 43 and 61 and 76.5 and 187.5 and 191 and 138 and 37
  FlexMap signal, NM_004602 (LUA#32): 255 and 274.5 and 61 and 87.5 and 116 and 185 and 270 and 293 and 288 and 46
  FlexMap signal, NM_004723 (LUA#20): 281 and 329 and 61 and 105 and 151 and 271.5 and 350 and 352 and 258 and 37
  FlexMap signal, NM_004741 (LUA#89): 397 and 326 and 70 and 77 and 131 and 204.5 and 315 and 415.5 and 300.5 and 58
  FlexMap signal, NM_004759 (LUA#37): 242 and 139.5 and 32 and 41 and 60 and 119 and 132.5 and 213 and 159 and 28
  FlexMap signal, NM_005008 (LUA#77): 242 and 301.5 and 53.5 and 87 and 114 and 239.5 and 315 and 316 and 232 and 41
  FlexMap signal, NM_005375 (LUA#86): 548 and 553 and 131 and 196 and 334 and 547.5 and 602 and 531 and 86
  FlexMap signal, NM_005566 (LUA#85): 539.5 and 610.5 and 89 and 117 and 183 and 197.5 and 597 and 632 and 489 and 45
  FlexMap signal, NM_005914 (LUA#60): 525.5 and 804.5 and 102 and 218.5 and 314 and 594 and 914 and 889 and 716.5 and 44
  FlexMap signal, NM_005915 (LUA#72): 46 and 42 and 25 and 27 and 30 and 35 and 40 and 37 and 38 and 29
  FlexMap signal, NM_005952 (LUA#66): 204 and 199 and 43 and 56 and 74 and 143 and 200 and 197.5 and 156 and 34
  FlexMap signal, NM_005980 (LUA#73): 160 and 157 (2×) and 32 and 43 and 52 and 102.5 and 166 and 132 and 34
  FlexMap signal, NM_006019 (LUA#35): 810 and 792 and 73 and 140 and 227 and 497 and 747 and 787.5 and 655 and 34
  FlexMap signal, NM_006138 (LUA#56): 87 and 95 and 37 and 40 and 49 and 67 and 97 and 102.5 and 86 and 38
  FlexMap signal, NM_006432 (LUA#27): 1364 and 1394 and 190 and 358.5 and 574 and 1118 and 1397.5 and 1403 and 1160 and 68
  FlexMap signal, NM_006452 (LUA#71): 52 and 60 and 25 and 37 and 37.5 and 43 and 57 and 71 and 44 and 23.5
  FlexMap signal, NM_006985 (LUA#58): 48 and 59 (2×) and 31 and 32 and 37.5 and 45.5 and 52 and 46.5 and 30
  FlexMap signal, NM_007282 (LUA#16): 46 and 62.5 and 27 and 29 and 30 and 42 and 53 and 61.5 and 58 and 28
  FlexMap signal, NM_014333 (LUA#26): 613 and 656.5 and 74 and 128 and 211 and 427 and 674 and 705 and 572 and 41
  FlexMap signal, NM_014366 (LUA#61): 217 and 294 and 38 and 61 and 89.5 and 191 and 291.5 and 299.5 and 235 and 33.5
  FlexMap signal, NM_014573 (LUA#70): 138.5 and 144.5 and 40 and 45 and 56 and 93 and 156 and 161.5 and 123 and 38.5
  FlexMap signal, NM_015201 (LUA#57): 208 and 198 and 40 and 49 and 64 and 139 and 197 and 228 and 156 and 31
  FlexMap signal, NM_018115 (LUA#63): 1217 and 860.5 and 109.5 and 234 and 409 and 710.5 and 896 and 1206.5 and 927 and 61
  FlexMap signal, NM_018164 (LUA#69): 148.5 and 149 and 37 and 46 and 67 and 139 and 150 and 156.5 and 133 and 36
  FlexMap signal, NM_018256 (LUA#83): 638.5 and 688.5 and 178.5 and 177 and 268 and 371 and 633 and 804.5 and 779 and 151
  FlexMap signal, NM_018890 (LUA#33): 737 and 769 and 82 and 151.5 and 240 and 534.5 and 760 and 762 and 652 and 41
  FlexMap signal, NM_019058 (LUA#75): 102 and 129 and 37 and 48 and 56 and 90 and 126 and 97 and 34
  FlexMap signal, NM_020117 (LUA#78): 487 and 502 and 65 and 114 and 184 and 371 and 519 and 543 and 415 and 45
  FlexMap signal, NM_021103 (LUA#41): 629 and 2096 and 467.5 and 781.5 and 992 and 1953 and 2465.5 and 2408 and 495 and 142
  FlexMap signal, NM_021203 (LUA#80): 445.5 and 471 and 65 and 109 and 165 and 355 and 480 and 514 and 369 and 46
  FlexMap signal, NM_021974 (LUA#64): 776 and 891 and 136.5 and 255.5 and 403 and 781.5 and 929 and 940 and 667.5 and 55
  FlexMap signal, NM_024045 (LUA#65): 112 and 127.5 and 35 and 40 and 57 and 92.5 and 135.5 and 110 and 29
  FlexMap signal, TFRC (LUA#92): 252 and 255 and 54 and 66 and 90 and 168 and 256 and 272 and 213 and 45
[2]; [4]
  ACTB LUA#91 FlexMap level: 344 and 2113 and 2976 and 3020 and 2200 and 2601 and 2521 and 1195
  GAPDH_3 LUA#95 FlexMap level: 1659 and 3754 and 4065 and 4240 and 3880 and 3379 and 3353.5 and 1707.5
  GAPDH_5 LUA#93 FlexMap level: 238 and 1501 and 2205.5 and 2064 and 1482 and 1768.5 and 1737 and 843
  GAPDH_M LUA#94 FlexMap level: 642 and 3318 and 3783.5 and 3886 and 3205 and 3303 and 3248 and 1513
  NM_000070 LUA#2 FlexMap level: 84.5 and 400 and 756 and 769.5 and 717.5 and 638.5 and 741 and 490.5
  NM_000147 LUA#29 FlexMap level: 48 and 184 and 276.5 and 330.5 and 274 and 275 and 318 and 288
  NM_000153 LUA#10 FlexMap level: 35 and 90 and 138 (2×) and 150 and 120 and 171.5 and 223
  NM_000211 LUA#39 FlexMap level: 81 and 598.5 and 1229 and 1162.5 and 868 and 1061 and 973 and 440.5
  NM_000250 LUA#87 FlexMap level: 261.5 and 1504 and 2135 and 2243 and 1820 and 2094 and 1863 and 1124
  NM_000414 LUA#22 FlexMap level: 79.5 and 477 and 902 and 920 and 503 and 800 and 838 and 646
  NM_000433 LUA#28 FlexMap level: 53 and 234 and 451.5 and 466 and 318 and 421 and 370.5 and 244.5
  NM_000584 LUA#30 FlexMap level: 45 and 189 and 470 and 461 and 435 and 379 and 597 and 352
